{
  "source": "patent US20240287054A1",
  "about": "“COMPOUNDS THAT BIND NON-CANONICAL G-QUADRUPLEX STRUCTURES AND METHODS OF MAKING AND USING THE SAME” (The U.S.A., as Represented by the Secretary, Department of …, priority 2021, published 2024)",
  "key": {"MYCN G4 DNA [1]": {"test_system": "MYCN G4 DNA", "test": "Fluorescence quenching of position-labeled MYCN G4 (2-AP at A11/A18/A24, 5′/3′-Cy5)", "format": "binding, human", "experimental": "Fluorescence intensity assay. In this disclosure, fluorescence intensity assay (FIA) was used for both validation of hit binding at a single dose and binding affinity determination. For validating hit compounds from SMM screening, 100 μM solution of each compound was prepared in triplicate in a 96 well-plate (Costar, black side clear bottom), resulting in 5% DMSO concentration. 5′Cy5-labeled MYCN G4 DNA was annealed as described above, then added into the well plate resulting in a final concentration of 100 nM. The plate was incubated shaking for 30 min, followed by centrifuging at 500 rpm for 2 minutes. The fluorescence intensity was then measured on a Synergy Mx microplate reader (BioTek) at Ex 649 nm/Em 670 nm. TMPyP4/DMSO were used as positive and negative controls, respectively. In certain examples, compounds were considered binders when a change of >10% change in fluorescence intensity was observed compared to that of negative control (DMSO solution). For binding affinity measurement, small molecule solutions were prepared as serial dilutions in DMSO. Then a final test plate was prepared by adding 5 μL small molecule solutions and 10 μL annealed DNA samples into 85 μL buffer solutions, resulting in the final small molecule concentrations from 0 to 250 μM (5% final DMSO concentration). The fluorescence intensities were normalized, and the binding affinity was calculated by fitting the curve using one-site total model in GraphPad Prism 8.3.1 software. The fluorescence titration using 3′-labeled oligonucleotides was also performed the same way.\n2-Aminopurine (2-AP) fluorescence titration. Fluorescence titrations based on 2-aminopurine labeling were performed using the protocol reported previously. Briefly, MYCN G4 oligonucleotide with a 2-AP substitution at either A11 or A18 position was annealed by heating the sample to 95° C. for 5 min and cooling down to RT slowly. The oligonucleotide with folded structure was diluted to 10 μM in Tris buffer (10 mM Tris, pH7.0, 100 mM KCl, 0.005% Tween 20) and prepared in a black 96-well plate (Costar) in triplicate as designed. Small molecules were diluted in DMSO to obtain a series of solutions with concentrations ranging from 0.1 to 5 mM, and then diluted by 20 times added into the plate (5% DMSO final concentration). The final concentration of 2-AP DNA was 1 μM in the well plate. To obtain the background fluorescence, small molecule solutions without DNA were also prepared in the same plate. After incubation for 30 min at RT, the plate was briefly centrifuged and scanned in Synergy Mx microplate reader (BioTek) with Ex 310 nm/Em 365 nm. Fluorescence signals were calculated by averaging the intensities in triplicate wells after subtracting the references. Finally, the binding signals were normalized and the KD value was determined by fitting the curve using a nonlinear sigmoidal dose-response model with a variable slope in GraphPad Prism 8.3.1 software.\nTo further understand the binding details between compound MY-1 and MYCN G4, a series of FIA studies were designed and performed. […] After incubating 100 μM MY-1 with labeled DNA samples, fluorescence intensities were measured and compared to DMSO controls. Fluorescence of the A11 2-AP DNA sample was quenched by almost 100%, while the quenching percentages were 80% and 70% for A18 and A24 2-AP DNAs, respectively (FIG. 24B, FIGS. 25A-25C). […]"}, "MYCN G4 DNA [2]": {"target": "MYCN G4 DNA", "test": "Microscale thermophoresis (MST) with 3′-Cy5 MYCN G4 DNA", "parameters": "species or system human", "details": "3′-Cy5 labeled MYCN G4, 1:1 binding model; read-out: binding affinity by MST", "experimental": "Microscale thermophoresis (MST). MST experiments were carried out on a Monolith NT.115 system (NanoTemper Technologies). The 3′-Cy5 MYCN G4 DNA solutions were prepared in 10 mM Tris (pH 7.5), 100 mM KCl, 0.005% T20, annealed (according to the above-mentioned method), and diluted to 100 nM (2×). The DMSO solutions of small molecules were prepared in the buffer with a series 1:1 dilution, resulting in 2× of designed concentrations (10% DMSO). Then, DNA samples were 1:1 (v/v) mixed with corresponding small molecule solutions, resulting in 50 nM DNA and 5% DMSO. Finally, MST signals were detected in triplicate capillaries, and the dissociation constant was determined by fitting the curve using a single-site model (MO.Affinity Analysis v2.3)."}, "PIM1-form2 HP-G4": {"target": "PIM1-form2 HP-G4", "test": "FIA binding test with PIM1-form2 HP-G4 ((2+2) chair-type structure)", "details": "read-out: binding affinity, PIM1-form2 HP-G4", "experimental": "(§1) In this study, FIA was used for validating the bindings between certain bivalent and MYCN G4 oligos. To measure the binding affinity, a solution of each compound was prepared in triplicate in a 96 well-plate (Costar, black side clear bottom), resulting in a final concentration of 100 nM (5% final DMSO in the working solution). Unlabeled MYCN G4 DNA was folded based on the above-mentioned annealing method, then added into the well plate resulting in different concentrations by a seral dilution. The plate was incubated at room temperature for 30 min, followed by centrifuging at 500 rpm for 2 minutes. The fluorescence intensity was then quantitatively recorded by a Synergy Mx microplate reader (BioTek) at Ex 340 nm/Em 500 nm. The fluorescence intensities were then normalized, and the binding affinity was calculated by fitting the curve using one-site total model in GraphPad Prism 8.3.1 software.\n(§2) In addition to the DMS-footprinting study, the bivalent binding mode of compound B33 toward MYCN hairpin-G4 was also investigated by comparing HP-G4s with different folding types. Four reported HP-G4s with parallel structure (BCL2), (3+1) hybrid structure (HIV and PIM1-form1), and (2+2) chair-type structure (PIM1-form2) were examined by FIA binding test using compound B33 (FIGS. 41A, 41B, 42A, 42B, 43A, 43B, 44A, and 44B). […]"}, "PIM1-form1 HP-G4": {"target": "PIM1-form1 HP-G4", "test": "FIA binding test with PIM1-form1 HP-G4 ((3+1) hybrid structure)", "experimental": "as §1, §2"}},
  "data": [
    {"smiles": "COc1ccc(-c2noc(-c3ccc(NCCCN4CCCC4)nn3)n2)cc1", "note": "[MY-1, 6-(3-(4-methoxyphenyl)-1,2,4-oxadiazol-5-yl)-N-(3-(pyrrolidin-1-yl)propyl)pyridazin-3-amine]", "values": [
      {"measurement": "fluorescence quenching, 3′-Cy5 labeled oligo", "setting": "MYCN G4 DNA [1]; 100 μM MY-1", "result": 0, "unit": "%"},
      {"measurement": "fluorescence quenching, 5′-Cy5 labeled oligo", "setting": "MYCN G4 DNA [1]; 100 μM MY-1", "result": 15, "unit": "%"},
      {"measurement": "fluorescence quenching, A11 2-AP DNA", "setting": "MYCN G4 DNA [1]; 100 μM MY-1 vs DMSO control", "result": "~100", "unit": "%"},
      {"measurement": "fluorescence quenching, A18 2-AP DNA", "setting": "MYCN G4 DNA [1]; 100 μM MY-1 vs DMSO control", "result": 80, "unit": "%"},
      {"measurement": "fluorescence quenching, A24 2-AP DNA", "setting": "MYCN G4 DNA [1]; 100 μM MY-1 vs DMSO control", "result": 70, "unit": "%"},
      {"measurement": "Kd", "setting": "MYCN G4 DNA [2]", "result": "8.1 ± 1.7", "unit": "µM"}
    ]},
    {"smiles": "COc1ccc(-c2noc(-c3ccc(NCCCNc4c5ccc(Cl)cc5nc5ccc(OC)cc45)nn3)n2)cc1", "note": "[B33, N^1-(6-chloro-2-methoxyacridin-9-yl)-N^3-(6-(3-(4-methoxyphenyl)-1,2,4-oxadiazol-5-yl)pyridazin-3-yl)propane-1,3-diamine]", "values": [
      {"measurement": "Kd", "setting": "PIM1-form2 HP-G4", "result": "1.1 ± 0.4", "unit": "µM"},
      {"measurement": "Kd", "setting": "PIM1-form1 HP-G4", "result": "0.279 ± 0.032", "unit": "µM"}
    ]}
  ]
}
